Experiment [1] concerns Mycobacterium tuberculosis H37Rv. Kind of experiment: Mycobacterium tuberculosis H37Rv Inhibition Assay (resazurin MIC). The class given is cell-based. To be noted: ATCC 25618 / H37Rv, H37Rv strain (ATCC25618), Middlebrook 7H9+ADC, six days at 37° C., resazurin fluorescence after 48 hours, read-out: MtB MIC. In general terms: Resazurin is reduced to fluorescent resorufin, in cell work by metabolically active cells.

A short description of experiment [2]: Antimicrobial Activity Assay: whole-cell broth microdilution (CLSI M7-A7). The class given is cell-based, Gram-positive and Gram-negative organisms. To be noted: at least one of S. aureus, S. pneumoniae, E. faecalis, H. influenzae, M. catarrhalis, E. coli, read-out: MIC against at least one of the organisms listed. As to the method:
Antimicrobial Activity Assay: Whole-cell antimicrobial activity was determined by broth microdilution using the Clinical Laboratory Standards Institute (CLSI) recommended procedure, Document M7-A7, “Methods for Dilution Susceptibility Tests for Bacteria that Grow Aerobically”. Compounds were evaluated against Gram-positive organisms, including Staphylococcus aureus, Streptococcus pneumoniae, and Enterococcus faecalis. In addition, compounds were evaluated against Gram-negative organisms including Haemophilus influenzae, Moraxella catarrhalis, and Escherichia coli. The minimum inhibitory concentration (MIC) was determined as the lowest concentration of compound that inhibited visible growth. A mirror reader was used to assist in determining the MIC endpoint.

This is an account of results in patent US20110071155A1, “Tricyclic Nitrogen Containing Compounds And Their Use As Antibacterials” (priority 2008, published 2011).

Values after ≈ are worked out from the molar mass of the structure shown.

With `O=c1ccc2ncc(=O)n3c2n1CC3CN1CCC(NC/C=C/c2cccc(F)c2)CC1` (stereo not drawn) [Example 2, 2-[(4-{[(2E)-3-(3-fluorophenyl)-2-propen-1-yl]amino}-1-piperidinyl)methyl]-1,2-dihydro-3H,8H-2a,5,8a-triazaacenaphthylene-3,8-dione], the MIC in experiment [1] was 0.102 µg/mL (≈ 0.234 µM); in experiment [2], less than 2 µg/mL.

As for `O=c1ccc2ncc(=O)n3c2n1CC3CN1CCC(NC/C=C/c2cncc(F)c2)CC1` (stereo not drawn) [Example 5, 2-[(4-{[(2E)-3-(5-fluoro-3-pyridinyl)-2-propen-1-yl]amino}-1-piperidinyl)methyl]-1,2-dihydro-3H,8H-2a,5,8a-triazaacenaphthylene-3,8-dione], the MIC in experiment [1] was 0.273 µg/mL (≈ 0.625 µM).

As to `O=c1ccc2ncc(=O)n3c2n1CC3CN1CCC(NCCCc2cccc(F)c2)CC1` (stereo not drawn) [Example 3, 2-[(4-{[3-(3-fluorophenyl)propyl]amino}-1-piperidinyl)methyl]-1,2-dihydro-3H,8H-2a,5,8a-triazaacenaphthylene-3,8-dione], the MIC is 0.82 µg/mL (≈ 1.87 µM) in experiment [1] and less than 2 µg/mL in experiment [2]. On the same counts, the results for `O=c1ccc2ccc(=O)n3c2n1C[C@H]3CN1CCC(NC/C=C/c2cc(F)ccc2F)CC1` [Example 1, (1R)-1-[(4-{[(2E)-3-(2,5-difluorophenyl)-2-propen-1-yl]amino}-1-piperidinyl)methyl]-1,2-dihydro-4H,9H-imidazo[1,2,3-ij]-1,8-naphthyridine-4,9-dione] are 0.071 µg/mL (≈ 0.157 µM) and less than 2 µg/mL.

On to `O=c1ccc2ncc(=O)n3c2n1CC3CN1CCC(NCCOc2cccc(F)c2)CC1` (stereo not drawn) [Example 6, 2-{[4-({2-[(3-fluorophenyl)oxy]ethyl}amino)-1-piperidinyl]methyl}-1,2-dihydro-3H,8H-2a,5,8a-triazaacenaphthylene-3,8-dione], for which the results for the MIC in experiment [1] and in experiment [2] were 0.824 µg/mL (≈ 1.87 µM) and less than 2 µg/mL, respectively.

With `O=c1ccc2ccc(=O)n3c2n1C[C@H]3CN1CCC(NC/C=C/c2cncc(F)c2)CC1` [Example 4, (1R)-1-[(4-{[(2E)-3-(5-fluoro-3-pyridinyl)-2-propen-1-yl]amino}-1-piperidinyl)methyl]-1,2-dihydro-4H,9H-imidazo[1,2,3-ij]-1,8-naphthyridine-4,9-dione], the MIC is 0.544 µg/mL (≈ 1.25 µM) in experiment [1] and less than 2 µg/mL in experiment [2]. For the compound `O=c1ccc2ncc(=O)n3c2n1CC3CN1CCC(NCCNc2cccc(F)c2)CC1` (stereo not drawn) [Example 7, 2-{[4-({2-[(3-Fluorophenyl)amino]ethyl}amino)-1-piperidinyl]methyl}-1,2-dihydro-3H,8H-2a,5,8a-triazaacenaphthylene-3,8-dione], the MIC in experiment [1] was 0.071 µg/mL (≈ 0.162 µM).
